Read-outs that look alike come from different tables or passages of the source.
Experiments:
[1] = biological target: CYP3A4 (Homo sapiens, UniProt P08684); details: Supersome CYP3A4; bioactivation of CPF; ref Foxenberg et al. ([2007]); cited from earlier work
[2] = system: pooled HLMs (CYPs); details: cited from earlier work
[3] = system: rat liver microsomes; details: bioactivation of CPF, biphasic kinetics; ref Ma and Chambers ([1995]); cited from earlier work
[4] = biological target: T1, CYP1A2 (Homo sapiens, UniProt P05177); assay: Supersome CYP1A2 kinetic incubations; format: in vitro ADME; parameters: purchased Corning (Amsterdam, The Netherlands); host or cells: baculovirus-transfected insect cells; details: for Scaled Vmax(app): CYP1A2 scaled to whole liver by Eq. 3; for Vmax (app) / Km: Supersome CYP1A2; for Km: human, recombinant CYP1A2 Supersomes, pH 7.4, Km(app)
T1 sequence (P05177 2-516 limits assumed): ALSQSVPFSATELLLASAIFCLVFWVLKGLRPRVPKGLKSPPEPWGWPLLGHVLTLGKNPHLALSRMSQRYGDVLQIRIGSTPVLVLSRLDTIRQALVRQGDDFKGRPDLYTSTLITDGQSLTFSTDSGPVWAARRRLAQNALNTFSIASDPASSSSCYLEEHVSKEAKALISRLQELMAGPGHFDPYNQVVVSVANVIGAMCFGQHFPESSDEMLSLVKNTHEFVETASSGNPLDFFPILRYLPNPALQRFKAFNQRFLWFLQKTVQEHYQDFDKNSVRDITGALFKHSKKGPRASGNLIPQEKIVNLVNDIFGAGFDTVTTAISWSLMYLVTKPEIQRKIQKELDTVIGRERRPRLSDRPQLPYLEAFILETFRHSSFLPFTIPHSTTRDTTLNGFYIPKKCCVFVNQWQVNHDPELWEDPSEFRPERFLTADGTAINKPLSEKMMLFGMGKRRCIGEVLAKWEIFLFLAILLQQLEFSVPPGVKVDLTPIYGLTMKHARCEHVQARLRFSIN
Protocol: (§1) The final incubations were carried out in 50 mM Tris–HCl (pH 7.4) containing 5 mM MgCl2, 1 mM EDTA (as an A-esterase PON1 inhibitor) (Bizoń and Milnerowicz [2018]), 50 µM iso-OMPA (as a B-esterases inhibitor) (Lane et al. [2006]), Supersome™ isoform (at final concentration of 0.005 nmol CYP/ml for 1A2, 0.001 nmol CYP/ml for 2B6, 0.01 nmol CYP/ml for 2C19, and 0.01 nmol CYP/ml for 3A4) and CPF at different final concentrations (0.05, 0.1, 0.25, 0.5, 1, 5 and 10 µM for 1A2, 0.05, 0.1, 0.25, 0.5, 1, 5 10 and 25 µM for 2B6, 1, 2.5, 5, 10, 25 and 50 µM for 2C19, and 0.5, 1, 2.5, 5, 10, 25 and 50 µM for 3A4), which were added from 100 times concentrated stock solutions in ACN. After 1 min preincubation in a 37 °C water bath, 5 µl NADPH (final concentration 1 mM) was added to the incubation system. Control incubations were performed by replacing NADPH with the same amount of Tris–HCl (pH 7.4). The total volume of the incubation mixtures was 200 µl. The incubations lasted for 2 min at 37 °C and were terminated by addition of 50 µl ice cold ACN and subsquently put on ice. After that, samples were centrifuged at 16,000 g (4 ℃) for 5 min and supernatants of samples were separated into two equal portions for Ultra-Performance Liquid Chromatography-Photodiode Array (UPLC-PDA) and Liquid Chromatography Mass Spectrometry (LC–MS/MS) analysis, respectively.
(§2) To normalize for differences in intrinsic CYP activity between Supersome™ and pooled HLMs and enable scaling of the activities to the in vivo situation, CYP-specific ISEF values need to be established. […] The incubation method was similar as used for the CPF kinetic incubation assay described above, except that certain incubation conditions were replaced by the conditions listed in Table 1. The samples obtained were analyzed by UPLC-PDA for acetaminophen, 4-hydroxymephenytoin, and 6β-hydroxytestosterone formation catalyzed by 1A2, 2C19 and 3A4, or LC–MS/MS for (±)-hydroxybupropion formation catalyzed by 2B6.
(§3) As mentioned before, the in vitro apparent kinetic parameters (Vmax and Km) for pathway 1 and pathway 2 in the HLM-based approach, and pathway 3 in both approaches were all obtained directly from reported studies using pooled HLMs (Buratti et al. [2003]; Sams et al. [2004]; Zhao et al. [2019]). Therefore, no extra calculations were required to define these parameters. The kinetic parameters for the ISEF calculation, pathway 1 and 2 in the Supersome™-based approach, and pathway 4 in both approaches (25 individuals) were all obtained by fitting the experimental data to the Michaelis–Menten model using GraphPad (GraphPad Prism 5.0 software, San Diego, CA, USA). It should be noted that the kinetic parameters for pathway 4 used in the two approaches were calculated as mean of the kinetic parameters (Vmax and Km) obtained using 25 individual HP samples (with correction for total protein concentration of each plasma sample).
(§4) The in vivo Kmi values were assumed to be equal to the apparent Kmi(app) values (µM) obtained in the in vitro incubations, while the in vivo Vmaxi for each CYP isoform was derived from their corresponding apparent CYP isoform Vmaxi(app) (pmol/min/pmolCYP) using Eq. 3:3 Vmaxi=Vmaxiapp×CYPiabundance×ISEF×60×MPL×1000×VL/1,000,000,

[5] = biological target: CYP2C19 (Homo sapiens, UniProt P33261); assay: Supersome CYP2C19 kinetic incubations; format: in vitro ADME; parameters: purchased Corning (Amsterdam, The Netherlands); host or cells: baculovirus-transfected insect cells; details: for Scaled Vmax(app): CYP2C19 scaled to whole liver by Eq. 3; for Vmax (app) / Km: Supersome CYP2C19; for Km: human, recombinant CYP2C19 Supersomes, pH 7.4, Km(app)
CYP2C19, sequence (P33261 whole entry): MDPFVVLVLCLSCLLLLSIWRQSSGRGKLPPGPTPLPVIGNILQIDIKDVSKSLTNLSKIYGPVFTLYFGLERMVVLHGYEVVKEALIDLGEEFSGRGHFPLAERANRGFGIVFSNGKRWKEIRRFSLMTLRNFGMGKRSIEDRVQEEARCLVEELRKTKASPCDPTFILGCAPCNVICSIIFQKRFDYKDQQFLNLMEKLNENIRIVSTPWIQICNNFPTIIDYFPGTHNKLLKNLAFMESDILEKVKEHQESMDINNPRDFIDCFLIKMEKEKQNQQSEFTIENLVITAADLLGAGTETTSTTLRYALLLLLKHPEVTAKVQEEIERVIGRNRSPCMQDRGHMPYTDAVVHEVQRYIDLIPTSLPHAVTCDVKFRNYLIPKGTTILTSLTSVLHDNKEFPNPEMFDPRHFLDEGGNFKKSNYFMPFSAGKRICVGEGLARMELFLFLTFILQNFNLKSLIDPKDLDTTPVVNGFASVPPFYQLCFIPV
Protocol: as §1, §2, §3, §4

[6] = Pathway 2 (CPF to TCPy), pooled HLMs, CPF 3–100 µM, ref Sams et al. ([2004])
[7] = Pathway 1 (bioactivation of CPF to CPO)
[8] = Pathway 2 (detoxification of CPF to TCPy)

CYP3A4, sequence (P08684 2-503 limits assumed): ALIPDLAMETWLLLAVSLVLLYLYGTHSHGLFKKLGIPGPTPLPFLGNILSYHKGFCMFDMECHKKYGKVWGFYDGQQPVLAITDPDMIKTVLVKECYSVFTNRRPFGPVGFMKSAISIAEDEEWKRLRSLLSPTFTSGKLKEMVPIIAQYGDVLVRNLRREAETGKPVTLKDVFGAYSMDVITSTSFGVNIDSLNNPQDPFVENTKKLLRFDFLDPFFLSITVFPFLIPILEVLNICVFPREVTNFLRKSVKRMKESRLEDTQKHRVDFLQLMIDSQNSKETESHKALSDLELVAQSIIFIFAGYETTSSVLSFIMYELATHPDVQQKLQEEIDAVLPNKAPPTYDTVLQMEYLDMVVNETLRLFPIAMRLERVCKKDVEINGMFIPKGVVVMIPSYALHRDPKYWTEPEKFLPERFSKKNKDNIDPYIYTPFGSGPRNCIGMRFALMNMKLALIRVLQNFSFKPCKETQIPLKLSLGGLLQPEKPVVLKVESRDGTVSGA

For `CCOP(=S)(OCC)Oc1nc(Cl)c(Cl)cc1Cl` [CPF, Chlorpyrifos], the Km [1] is listed as 27.3 µM, the “Vmax (high affinity)” value ([2]; Pathway 1 (CPF to CPO), pooled HLMs, CPF 0.02–10 µM, ref Buratti et al. ([2003])) is listed as 0.275 nmol/min/mg microsomal protein and the “Vmax (low affinity)” value ([2]; Pathway 1 (CPF to CPO), pooled HLMs, CPF 3–100 µM, ref Sams et al. ([2004])) is listed as 0.353 nmol/min/mg microsomal protein. For the same compound, the Km [2, 6] was 12 µM, the Vmax [2, 6] was 0.653 nmol/min/mg microsomal protein and the Km ([2]; read-out: Km (high affinity), Pathway 1 (CPF to CPO), pooled HLMs, CPF 0.02–10 µM, ref Buratti et al. ([2003])) was 0.27 µM. The Km ([2]; read-out: Km (low affinity), apparent Km in pooled HLMs, Pathway 1 (CPF to CPO), CPF 3–100 µM, ref Sams et al. ([2004])) was 29.8 µM, the “Km of high affinity phase lower than that of low affinity phase” value [3] was 50 fold and the “Scaled Vmax(app)” value ([4]; Pathway 1 (CPF to CPO)) was 51.81 µmol/h. The “Vmax (app)” value ([4]; Pathway 1 (CPF to CPO)) was 3.96 pmol/min/pmolCYP, the “Scaled Vmax(app)” value ([4]; Pathway 2 (CPF to TCPy)) was 38.73 µmol/h and the “Vmax (app)” value ([4]; Pathway 2 (CPF to TCPy)) was 2.96 pmol/min/pmolCYP. The Km [4, 7] was 0.61 µM, the Km [4, 8] was 1.25 µM and the “Scaled Vmax(app)” value ([5]; Pathway 1 (CPF to CPO)) was 10.81 µmol/h. For the same compound, the “Vmax (app)” value ([5]; Pathway 1 (CPF to CPO)) was 2.74 pmol/min/pmolCYP, the “Scaled Vmax(app)” value ([5]; Pathway 2 (CPF to TCPy)) was 69.06 µmol/h and the “Vmax (app)” value ([5]; Pathway 2 (CPF to TCPy)) was 17.51 pmol/min/pmolCYP. It also gave a Km [5, 7] of 1.89 µM and a Km [5, 8] of 1.37 µM.
